Source: ChEMBL document CHEMBL1201862, “PubChem BioAssay data set” (2004)
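All cell lines were grown in 96-well plates and treated with compound for 48 hours. GI50 is the concentration that inhibits growth by half.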 Active and inactive are the calls of the source. Rule as the data show it: active = GI50 up to about 1.1 µM and inactive = higher.

What was measured:
Test in all cases: NCI tumour cell line growth inhibition, 48 h
[1] = system: A498
[2] = system: A549
[3] = system: EKVX
[4] = system: HCC 2998
[5] = system: HL-60
[6] = system: HOP-92
[7] = system: HT-29
[8] = system: IGROV-1
[9] = system: KM12
[10] = system: M14
[11] = system: MCF7
[12] = system: NCI/ADR-RES
[13] = system: OVCAR-3
[14] = system: OVCAR-4
[15] = system: SF-295
[16] = system: SK-MEL-5
[17] = system: SR
[18] = system: SW-620
[19] = system: U-251
[20] = system: UO-31

Measured: GI50

CC1C(=O)N(c2ccccc2)NC12CCCc1ccccc12 (stereo not given)
inactive: [1] > 100 µM | [2] > 100 µM | [3] > 100 µM | [4] > 100 µM | [5] > 100 µM | [6] > 100 µM | [7] > 100 µM | [8] > 100 µM | [9] > 100 µM | [10] > 100 µM | [11] > 100 µM | [12] > 100 µM | [13] > 100 µM | [14] > 100 µM | [15] > 100 µM | [16] > 100 µM | [17] > 100 µM | [18] > 100 µM | [19] > 100 µM | [20] > 100 µM

CN(C)c1ccc(/C=C2/SC(=S)NC2=O)cc1
inactive: [1] > 100 µM | [2] > 100 µM | [3] > 100 µM | [4] > 100 µM | [5] > 100 µM | [6] > 100 µM | [7] > 100 µM | [8] > 100 µM | [9] 50.7 µM | [10] > 100 µM | [11] > 100 µM | [12] > 100 µM | [13] > 100 µM | [14] > 100 µM | [15] > 100 µM | [16] > 100 µM | [17] > 100 µM | [18] > 100 µM | [19] 61.7 µM | [20] > 100 µM
